Data on one compound can be found in US20100004303A1, “TREATMENT OF ENDOCRINE DYSFUNCTION USING IRON CHELATORS” (NOVARTIS AG, priority 2006, published 2010).

Experiment [1] deals with pancreatic Min6 cells. Nature of the experiment: Labile iron exposure of pancreatic Min6 cells: iron accumulation, cell damage, viability. The experiment is classed as cell-based. The text has this: (§1) Among the functions affected by metal-evoked ROS are cell permselectivity (calcein leakage), mitochondrial membrane potential (JC1 test), electron transport activity (Alamar Blue) and cell viability (calcein-propidium iodide). It can be observed that administration of deferasirox at therapeutically achievable doses ([…]): […]

Experiment [2] concerns Diet-induced obese mice. Nature of the experiment: Oral glucose tolerance test and plasma insulin in diet-induced obese mice. As to conditions: compared to the control animals. The experiment is classed as in vivo. As to the method: Diet-induced obese mice are used for the study at 21-23 weeks of age. On the first day of the study, animals are fasted at 7:30 a.m. Body weight measurement and basal blood sample collection are conducted at 10:30 a.m. Plasma glucose values are then determined. Animals were assigned into 4 groups (n=10/group) with the plasma glucose values and body weights matched between the 4 groups. At 12 pm, the animals are dosed orally with vehicle (water) or the Compound I at 30 mg/kg or […] respectively. At 1:00 p.m. a blood sample (at 0 min) is taken followed by an oral glucose tolerance test (OGTT) at 1 g/kg (20% glucose in water) at a dose volume of 5 ml/kg. Blood samples are collected at 30, 60 and 120 min following the glucose administration. The animals are refed after the OGTT. […]
Blood samples are taken during the study via tail bleeding. Plasma glucose concentrations are determined using a glucose meter (Ascensia Elite, Bayer Corp., Mishawaka, Ind.). […] Plasma insulin and glucagons levels are determined by Luminex assays using Mouse Endocrine Lincoplex kit (Linco Research, Inc., St. Charles, Mo.). […] Plasma triglyceride, fatty acid and total cholesterol levels are determined using a fluorescent assay based on Amplex Red kit (Molecular Probes, Eugene, Oreg.). […] Effects on cardiovascular diseases can also be assessed by further analysis on treated animals.

For experiment [3], the system named is At20 pituitary cells. In words: Cytoprotective effect on acutely iron-overloaded At20 pituitary cells (calcein retention, Alamar-Blue, ACTH levels). The experiment is classed as cell-based. As to conditions: cell culture conditions, pharmacological chelator concentrations. The source says:
A major cause of biological damage associated with tissue iron accumulation is the cellular acquisition of circulating labile plasma iron (LPI) by endocytic mechanisms and ensuing metal-catalyzed oxidations. Endocrine cells are presumed to have endocytic abilities and/or high susceptibility to the formation of reactive oxygen intermediates (ROIs), particularly those generated in the presence of labile iron. As these properties might be implicated in the early onset of endocrine dysfunctions observed in transfusional hemosiderosis, a major goal of iron chelation therapy is to prevent iron ingress into endocrine cells and ensuing toxicity and/or removal of cell accumulated iron. Such properties of chelators have been afforded in cardiac cells (Glickstein et al, 2006, Blood In press) by treating LPI-carrying plasma with pharmacological attainable concentrations of orally active iron chelators in clinical practice. […] It has been explored here whether addition of 4-[3,5-bis(2-hydroxyphenyl)-[1,2,4]triazol-1-yl]benzoic acid could rescue acutely-iron-overloaded At20 pituitary cells from iron-toxicity, using fluorescence-plate reader and microscopy-imaging for live monitoring of cell functions and assessing toxicity in terms of: 1. cell integrity (calcein cell retention assay) 2. metabolic activities (mitochondrial Alamar-Blue assay) and 3. intracellular (ACTH) hormone levels.

Experiment [4] has as its system subjects with IGM. Nature of the experiment: Multi-center, double-blind, randomized study in subjects with IGM. As to conditions: 8 weeks of treatment. The experiment is classed as in vivo, human. The text has this:
Favorable effects can be verified that confirm that Compound I can restore early phase insulin secretion and reduce post-prandial glucose levels in subjects with IGM, or can prevent or delay the onset of Type 2 diabetes and cardiovascular diseases in subjects with IGM. A multi-center, double-blind, parallel group, randomized study can be conducted in subjects with IGM in order to evaluate the incidence of confirmed hypoglycemia and the effects on prandial glucose associated with the administration of Compound I, or placebo before each main meal during 8 weeks of treatment. […]
Corresponding dosages of Compound I are administered daily depending on the number of main meals (breakfast, lunch, snack, dinner). […] HbA1c is to be measured at baseline and after 8 weeks of treatment (fasting glucose and fructosamine). Samples of blood are to be drawn at 10, 20, […], 60, 120, and 180 minutes after drug administration (time 0) and the glucose and insulin levels to be measured. […]

The test system of experiment [5] is pituitary Att20 cells. Nature of the experiment: Labile iron exposure of pituitary Att20 cells: iron accumulation, cell damage, viability. The experiment is classed as cell-based.
Text: as §1

The conditions of experiment [6]: model systems and humans; Hershko 2001, Nisbet Brown 2003; cited from earlier work.
Experiment [7] has as its system HJV−/− mice with iron overload. In words: Pancreas iron (ICP-OES) in HJV−/− mice with iron overload. The experiment is classed as in vivo. As to the method: The spontaneous iron loading and the effect of 4-[3,5-bis(2-hydroxyphenyl)-[1,2,4]triazol-1-yl]benzoic acid (Compound I) has been examined upon the removal of iron in HJV−/− mice with iron overload.
Methods: Inductively-Coupled Plasma Optical Emission Spectrometry (ICP-OES, measurement of elemental iron) determinations in spleen and pancreas were performed at week 8 (study start), 14, 20 and 28 in HJV−/− and wild type (wt) mice (n=6−8). Starting at week 20 three groups of HJV−/− animals received daily 0 (vehicle), 30 or 100 mg/kg of 4-[3,5-bis(2-hydroxyphenyl)-[1,2,4]triazol-1-yl]benzoic acid, control wt-mice remained untreated. Iron loading was observed up to 28 weeks, including vehicle group, and the effects of 4-[3,5-bis(2-hydroxyphenyl)-[1,2,4]triazol-1-yl]benzoic acid were assessed by comparing the 28-week groups. MRI R2* measurements were performed using a 4.7 MR imager.

Where [8] appears, read: 30-100 μM, incubated prior to or post iron-loading (acutely or chronically).
[9] abbreviates: 30-100 μM, present in the iron loading medium.
Setting [10] is: 30-100 μm, incubated prior to or post iron-loading (acutely or chronically).

Turning to `O=C(O)c1ccc(-n2nc(-c3ccccc3O)nc2-c2ccccc2O)cc1` [Compound I, 4-[3,5-Bis-(2-hydroxyphenyl)-[1,2,4]-triazol-1-yl]benzoic acid], the cell viability result in experiment [1] (setting [8]) and in experiment [5] (setting [8]) was “increases cell viability” each time. Also, the “labile iron raising in cells” value in experiment [1] (setting [9]) and in experiment [5] (setting [9]) was “largely prevents labile iron from raising in cells” each time. In addition, the iron-evoked cell damage entry in experiment [1] (setting [10]) and in experiment [5] (setting [10]) was “reduces iron-evoked cell damage” each time. Further, in experiment [2], the plasma insulin levels result was “can show a lowering in plasma insulin levels”. Moreover, in experiment [3], the “At20 endocrine cell viability and functional properties compromised by iron-catalyzed formation of ROIs” value is “can preserve both At20 endocrine cell viability and functional properties”. Besides, in experiment [4], the “2 hour prandial glucose levels, HBA1c and fructosamine levels” value is on record as “can be reduced”. Moreover, in experiment [4], the “early phase insulin secretion” value is recorded as “can be restored”. Further, the “selective removal of iron” value in experiment [6] is “effective in the selective removal of iron”. The “pancreas iron ± SEM” value in experiment [7] (30 mg/kg daily from week 20, 28-week group, n = 7) is on record as 4.72 ± 0.65 mg/g dry weight; in experiment [7] (100 mg/kg daily from week 20, 28-week group, n = 6), 3.54 ± 0.55 mg/g dry weight. The “pancreas iron levels, effect in words” value in experiment [7] (100 mg/kg dose) is “clear trend to lower levels”. For the same compound, the “pancreatic iron load, effect in words” value in experiment [7] (within 8 weeks of treatment) was “trend to improvement of pancreatic iron load”.
